Experiments:
Experiment in all cases: normalised response (% of control), CellTiter-Glo; higher = more viable cells (100 = DMSO, 0 = benzethonium chloride kill control)
Details in all cases: incubation time: 72 h
[1] = tested on: HCC1143
Procedure, shortened: (§1)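 Each value is the plate-normalised signal at one concentration of the series. Breast cancer cell lines (20 µl suspension) were incubated 72 h in 384-well plates with compound at 5 concentrations in 10-fold steps over a compound-specific 10,000-fold range. CellTox Green and then CellTiter-Glo were read, and each plate was scaled to 0.1 % DMSO (100) and a positive kill control (0).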

[2] = tested on: MDA-MB-436
Procedure, shortened: as §1

[3] = tested on: HCC1937
Procedure, shortened: as §1

[4] = tested on: MDA-MB-468
Procedure, shortened: as §1

[5] = tested on: CAL-120
Procedure, shortened: as §1

[6] = tested on: MDA-MB-231
Procedure, shortened: as §1

[7] = tested on: Hs578T
Procedure, shortened: as §1

[8] = tested on: BT-549
Procedure, shortened: as §1

[9] = tested on: CAL-148
Procedure, shortened: as §1

[10] = tested on: BT-474
Procedure, shortened: as §1

[11] = tested on: HDQ-P1
Procedure, shortened: as §1

[12] = tested on: MDA-MB-453
Procedure, shortened: as §1

[13] = tested on: CAL-85-1
Procedure, shortened: as §1

[14] = tested on: CAL-51
Procedure, shortened: as §1

[15] = tested on: HCC1599
Procedure, shortened: as §1

[16] = tested on: MCF-10A
Procedure, shortened: as §1

[17] = tested on: DU-4475
Procedure, shortened: as §1

[18] = tested on: SK-BR-3
Procedure, shortened: as §1

[19] = tested on: MFM-223
Procedure, shortened: as §1

For `Oc1ccc2c(c1)CC[C@H](c1ccccc1)[C@@H]2c1ccc(OCCN2CCCC2)cc1` [Lasofoxifene] (100 nM), the normalised response [1] was 106%, the normalised response [2] was 107% and the normalised response [3] was 96%. The normalised response [4] was 107%, the normalised response [5] was 107% and the normalised response [6] was 107%. It also gave a normalised response [7] of 106%, a normalised response [8] of 95.8% and a normalised response [9] of 105%. It also gave a normalised response [10] of 104%, a normalised response [11] of 99.4% and a normalised response [12] of 104%. The normalised response [13] was 97.6%, the normalised response [14] was 103% and the normalised response [15] was 107%. For the same compound, the normalised response [16] was 114%, the normalised response [17] was 95.7% and the normalised response [18] was 113%. The normalised response [19] was 105%.

`Cc1[nH]c2ccccc2c1CCNCc1ccc(/C=C/C(=O)NO)cc1` [Panobinostat] (100 nM) showed a normalised response [1] of 26.3%, a normalised response [2] of 55% and a normalised response [3] of 63.1%. For the same compound, the normalised response [4] was 28.2%, the normalised response [5] was 41.5% and the normalised response [6] was 10.2%. It also gave a normalised response [7] of 27.4%, a normalised response [8] of 46.2% and a normalised response [9] of 3.76%. It also gave a normalised response [10] of 13.4%, a normalised response [11] of 62.3% and a normalised response [12] of 3.15%. The normalised response [13] was 25.9%, the normalised response [14] was 24.6% and the normalised response [15] was 24.2%. It also gave a normalised response [16] of 49.1%, a normalised response [17] of 4.91% and a normalised response [18] of 1.76%. For the same compound, the normalised response [19] was 35.2%.

`CN(C)CCOc1ccc(/C(=C(/CCCl)c2ccccc2)c2ccccc2)cc1` [Toremifene] (1000 nM) showed a normalised response [1] of 96.3%, a normalised response [2] of 104% and a normalised response [3] of 96.7%. For the same compound, the normalised response [4] was 97.6%, the normalised response [5] was 98.5% and the normalised response [6] was 92.6%. For the same compound, the normalised response [7] was 107%, the normalised response [8] was 104% and the normalised response [9] was 99.2%. It also gave a normalised response [10] of 98.7%, a normalised response [11] of 96.6% and a normalised response [12] of 106%. The normalised response [13] was 99.2%, the normalised response [14] was 108% and the normalised response [15] was 102%. For the same compound, the normalised response [16] was 92.3%, the normalised response [17] was 98.3% and the normalised response [18] was 106%. It also gave a normalised response [19] of 101%.

`O=C(Nc1ccncc1)C(=O)c1cn(Cc2ccc(Cl)cc2)c2ccccc12` [Indibulin] (1000 nM) showed a normalised response [1] of 67.2%, a normalised response [2] of 42.2% and a normalised response [3] of 73.9%. The normalised response [4] was 37.7%, the normalised response [5] was 66.9% and the normalised response [6] was 78%. The normalised response [7] was 57.8%, the normalised response [8] was 42.8% and the normalised response [9] was 93.2%. It also gave a normalised response [10] of 70.8%, a normalised response [11] of 80.1% and a normalised response [12] of 67.8%. The normalised response [13] was 38.3%, the normalised response [14] was 25.5% and the normalised response [15] was 63.1%. The normalised response [16] was 89.8%, the normalised response [17] was 91.8% and the normalised response [18] was 33.2%. The normalised response [19] was 60%.

In the case of `C=C1C[C@@H]2[C@H](CC[C@]3(C)C(=O)CC[C@@H]23)[C@@]2(C)C=CC(=O)C=C12` [Exemestane] (1000 nM), the normalised response [1] was 107%, the normalised response [2] was 102% and the normalised response [3] was 103%. It also gave a normalised response [4] of 101%, a normalised response [5] of 102% and a normalised response [6] of 106%. It also gave a normalised response [7] of 100%, a normalised response [8] of 92.5% and a normalised response [9] of 97.7%. For the same compound, the normalised response [10] was 103%, the normalised response [11] was 99.3% and the normalised response [12] was 105%. The normalised response [13] was 98.3%, the normalised response [14] was 80.5% and the normalised response [15] was 115%. It also gave a normalised response [16] of 112%, a normalised response [17] of 105% and a normalised response [18] of 108%. It also gave a normalised response [19] of 110%.

In the case of `COc1cc(OC2CCN(C)CC2)ccc1Nc1ncc2c(n1)n(C1CCCC1)c(=O)n2C` [AZ 3146] (1000 nM), the normalised response [1] was 99.2%, the normalised response [2] was 110% and the normalised response [3] was 97.2%. It also gave a normalised response [4] of 104%, a normalised response [5] of 98% and a normalised response [6] of 96.7%. It also gave a normalised response [7] of 100%, a normalised response [8] of 104% and a normalised response [9] of 94.5%. It also gave a normalised response [10] of 96.5%, a normalised response [11] of 98.4% and a normalised response [12] of 117%. The normalised response [13] was 98.2%, the normalised response [14] was 74.5% and the normalised response [15] was 112%. For the same compound, the normalised response [16] was 92.5%, the normalised response [17] was 94.6% and the normalised response [18] was 74.6%. It also gave a normalised response [19] of 98.2%.

`CC(C)C[C@@H](C(=O)N[C@H](C(=O)OC1CCCC1)c1ccccc1)[C@H](O)C(=O)NO` [Tosedostat] (1000 nM) gave a normalised response [1] of 69%, a normalised response [2] of 73.6% and a normalised response [3] of 67.4%. The normalised response [4] was 28.7%, the normalised response [5] was 43.4% and the normalised response [6] was 59.7%. It also gave a normalised response [7] of 84.6%, a normalised response [8] of 55.9% and a normalised response [9] of 72.9%. The normalised response [10] was 40.6%, the normalised response [11] was 74.1% and the normalised response [12] was 48.7%. It also gave a normalised response [13] of 48.2%, a normalised response [14] of 91% and a normalised response [15] of 96.6%. For the same compound, the normalised response [16] was 87.3%, the normalised response [17] was 88.4% and the normalised response [18] was 76.2%. For the same compound, the normalised response [19] was 70.5%.

Compound `COc1cc2ncnc(Nc3ccc(F)c(Cl)c3)c2cc1OCCCN1CCOCC1` [Gefitinib] (1000 nM) has a normalised response [1] of 96.2%, a normalised response [2] of 103% and a normalised response [3] of 87.9%. It also gave a normalised response [4] of 75.3%, a normalised response [5] of 103% and a normalised response [6] of 101%. The normalised response [7] was 106%, the normalised response [8] was 97.7% and the normalised response [9] was 80%. It also gave a normalised response [10] of 101%, a normalised response [11] of 69% and a normalised response [12] of 95.2%. For the same compound, the normalised response [13] was 58.4%, the normalised response [14] was 103% and the normalised response [15] was 104%. For the same compound, the normalised response [16] was 34.2%, the normalised response [17] was 99.7% and the normalised response [18] was 51.9%. The normalised response [19] was 100%.

`O=P1(N(CCCl)CCCl)NCCCO1` (stereo not given) [Cyclophosphamide] (4000 nM) was tested, and the normalised response [1] was 104%, the normalised response [2] was 97.8% and the normalised response [3] was 99%. It also gave a normalised response [4] of 92.9%, a normalised response [5] of 94.4% and a normalised response [6] of 99.5%. The normalised response [7] was 111%, the normalised response [8] was 103% and the normalised response [9] was 100%. It also gave a normalised response [10] of 93.1%, a normalised response [11] of 98% and a normalised response [12] of 111%. For the same compound, the normalised response [13] was 92.1%, the normalised response [14] was 99.4% and the normalised response [15] was 109%. It also gave a normalised response [16] of 103%, a normalised response [17] of 104% and a normalised response [18] of 107%. For the same compound, the normalised response [19] was 106%.

`CNC(=O)c1cc(Oc2ccc(NC(=O)Nc3ccc(Cl)c(C(F)(F)F)c3)c(F)c2)ccn1` [Regorafenib] (1000 nM) was tested, and the normalised response [1] was 93.5%, the normalised response [2] was 101% and the normalised response [3] was 103%. For the same compound, the normalised response [4] was 105%, the normalised response [5] was 94.9% and the normalised response [6] was 99%. It also gave a normalised response [7] of 93.9%, a normalised response [8] of 105% and a normalised response [9] of 99.1%. For the same compound, the normalised response [10] was 91.8%, the normalised response [11] was 90.9% and the normalised response [12] was 97.2%. It also gave a normalised response [13] of 109%, a normalised response [14] of 65.6% and a normalised response [15] of 102%. The normalised response [16] was 90.6%, the normalised response [17] was 97.3% and the normalised response [18] was 102%. For the same compound, the normalised response [19] was 73.4%.

Source: the supplement of paper PMC4862054
